Patent US6048854A, “2,3-diaminopropionic acid derivative” (Sumitomo Pharmaceuticals Company, Limited, priority 1993, dated 2000)
Read-outs that look alike come from different tables or passages of the source.

Key:
platelet aggregation [1] = test: Platelet aggregation inhibitory activity (ex vivo) after oral administration; type: in vivo; details: Cavia porcellus, guinea pig, oral 0.1 mg/kg, ADP 10 μg/ml
Protocol: A canula for collecting blood was inserted into the left common carotid artery of a guinea pig which was anesthetized with pentobarbital (30 mg/kg, i.p.). The blood (1 ml) was taken with a syringe containing 1/10 volume of 3.8% sodium citrate (Kettin-citrate, manufactured by Kokusai Shiyaku Ltd.), and the platelet aggregation ability thereof was measured (as a value before administration). Then, a test compound was orally administered to the guinea pig at a dose of 0.1 mg/kg in a volume of 5 ml/kg, and the blood was collected periodically likewise at 0.5, 1, 2, 4 and 6 hours after the administration of the test compound, and the platelet aggregation ability thereof was measured.
The determination of the platelet aggregation ability was carried out by turbidimetry using a Hematracer (Niko Bioscience) as follows. That is, the blood was centrifuged at 4500 rpm at room temperature for 10 seconds, and the supernatant was considered as platelet rich plasma (PRP), and the precipitate was centrifuged at 11000 rpm for two minutes and its supernatant was considered as platelet poor plasma (PPP), and the photo-transmittance of the PRP and the PPP was adjusted to 0%, and 100%, respectively. A cubet containing PRP (200 μl) was inserted to a measurement well, and […] at 1000 rpm at 37° C. for two minutes, and thereto was added a platelet aggregator; ADP (adenosine diphosphate, Sigma Ltd., 20 μl, final concentration; 10 μg/ml), and the maximum aggregation rate was measured. From the maximum aggregation rate before the administration of the test compound (MAR control) and the maximum aggregation rate after the administration of the test compound (MAR sample), the platelet aggregation inhibitory rate of each test compound was estimated according to the following equation.
Inhibitory rate (%)=(1-(MAR sample/MAR control))×100
The periodical change in the platelet aggregation inhibitory rate of each test compound at a dose of 0.1 mg/kg of oral administration is shown in Table 5.

platelet aggregation [2] = test: Platelet aggregation inhibitory activity (ADP-induced, human platelet rich plasma); type: cell-based
Protocol: The blood was collected from the elbow vein of a normal volunteer with mixing thereof with 1/10 volume of 3.8% sodium citrate, and the blood was centrifuged at 1000 rpm (150 g) for 10 minutes to give the supernatant as platelet rich plasma (PRP). To PRP (200 μl) was added a test compound solution (2 μl), and the mixture was incubated with stirring at 1000 rpm at 37° C. for two minutes, and thereto was added a platelet aggregator, adenosine diphosphate (ADP, 22 μl) at a final concentration of 3 μg/ml. The platelet aggregation activity was determined by nephelometric analysis using a Hematracer (manufactured by Niko Bioscience, Ltd.). The test results of platelet aggregation inhibitory activity are expressed by IC50, which is a concentration of the test compound being required to inhibit the platelet aggregation reaction by 50%.
The compounds of Examples 18 to 70 were tested in the same manner as in Example 17.
The compounds of Examples 72 to 116 were tested in the same manner as in Example 17.

[3] = 0.5 hr, read-out: platelet aggregation inhibitory rate (%), 0.5 hr
[4] = 1 hr, read-out: platelet aggregation inhibitory rate (%), 1 hr
[5] = 2 hrs, read-out: platelet aggregation inhibitory rate (%), 2 hrs
[6] = 4 hrs, read-out: platelet aggregation inhibitory rate (%), 4 hrs
[7] = 6 hrs, read-out: platelet aggregation inhibitory rate (%), 6 hrs
[8] = Homo sapiens, Table 3, same manner as Example 17
[9] = Homo sapiens, Table 2, same manner as Example 17

IC50 (platelet aggregation [2]; [8]) [µM] | IC50 (platelet aggregation [2]; [9]) [µM] | IC50 (platelet aggregation [2]; Table 1, human PRP, ADP 3 μg/ml, 37° C.) [µM] | SMILES | inhibition in vivo at 0.1 mg/kg (platelet aggregation [1]; [3]) [%] | inhibition in vivo at 0.1 mg/kg (platelet aggregation [1]; [4]) [%] | inhibition in vivo at 0.1 mg/kg (platelet aggregation [1]; [5]) [%] | inhibition in vivo at 0.1 mg/kg (platelet aggregation [1]; [6]) [%] | inhibition in vivo at 0.1 mg/kg (platelet aggregation [1]; [7]) [%]
0.028 | – | – | CN(C)C(=N)c1ccc(C(=O)NCCC(=O)NC[C@H](NS(=O)(=O)c2ccccc2)C(=O)O)cc1 [Example 100, (2S)-2-benzenesulfonylamino-3-(3-(4-(N,N-dimethylamidino)benzoylamino)propanoylamino)propanoic Acid] | 100 | 100 | 100 | 100 | 100
– | 0.032 | – | N=C(N)c1ccc(CCCCC(=O)NC[C@H](NS(=O)(=O)c2ccccc2)C(=O)O)cc1 [Example 67] | 88 | 71 | 69 | 31 | 10
0.057 | – | – | CNC(=N)c1ccc(C(=O)NCCC(=O)NC[C@H](NS(=O)(=O)c2ccccc2)C(=O)O)cc1 [Example 98, (2S)-2-benzenesulfonylamino-3-(3-(4-(N-methylamidino)benzoylamino)propanoylamino)propanoic Acid] | 94 | 100 | 100 | 100 | 100
– | – | 6.14 | CCCCS(=O)(=O)N[C@@H](CNC(=O)CNC(=O)[C@H](Cc1ccc(OC)cc1)NC(=O)CCC1CCNCC1)C(=O)O [Example 14, (2S)-2-butanesulfonylamino-3-(N-(3-(4-piperidyl)propanoyl)-O-methyl-L-tyrosylglycylamino)propanoic Acid] | – | – | – | – | –
0.022 | – | – | N=C(NC1CCCCC1)c1ccc(C(=O)NCCC(=O)NC[C@H](NS(=O)(=O)c2ccccc2)C(=O)O)cc1 [Example 105, (2S)-2-benzenesulfonylamino-3-(3-(4-(N-cyclohexylamidino)benzoylamino)propanoylamino)propanoic Acid] | – | – | – | – | –
– | 0.032 | – | COc1cc(C)c(S(=O)(=O)N[C@@H](CNC(=O)CCNC(=O)CCC2CCNCC2)C(=O)O)c(C)c1C [Example 46, (2S)-2-(4-methoxy-2,3,6-trimethyl)benzenesulfonylamino-3-(3-(3-(4-piperidyl)propanoylamino)propanoylamino)propanoic Acid] | – | – | – | – | –
0.017 | – | – | CCNC(=N)c1ccc(C(=O)NCCC(=O)NC[C@H](NS(=O)(=O)c2ccccc2)C(=O)O)cc1 [Example 99, (2S)-2-benzenesulfonylamino-3-(3-(4-(N-ethylamidino)benzoylamino)propanoylamino)propanoic Acid] | 100 | 100 | 100 | 100 | 100
